Results published in ChEMBL document CHEMBL5523725, “Fragment-Based Anti-inflammatory Agent Design and Target Identification: Discovery of AF-45 as an IRAK4 Inhibitor to Treat Ulcerative Colitis and Acute Lung Injury” (J Med Chem, 2024).
Active and inactive are the calls of the source. The calls are words filed in the database; no cut-off is given here.

What was measured:
[1] = system: RAW264.7; experiment: Antiinflammatory activity in LPS-induced mouse RAW264.7 cells assessed as inhibition of IL-6 release at 10 uM pretreated for 30 mins followed by LPS stimulation and measured after 24 hrs by ELISA relative to control; type: functional; conditions: time 24.5 hrs
[2] = molecular target: Mitogen-activated protein kinase 14 (Homo sapiens) (UniProt Q16539); experiment: Inhibition of p38alpha (unknown origin) at 10 uM relative to control
[3] = molecular target: Interleukin-1 receptor-associated kinase 1 (Homo sapiens, UniProt P51617); experiment: Inhibition of IRAK1 (unknown origin)
[4] = molecular target: T1, Interleukin-1 receptor-associated kinase 4 (Mus musculus) (UniProt Q8R4K2); experiment: Thermal stabilization of IRAK4 in mouse RAW264.7 cells at 10 uM measured after 4 hrs by CETSA; type: cell-based
T1 sequence (whole entry): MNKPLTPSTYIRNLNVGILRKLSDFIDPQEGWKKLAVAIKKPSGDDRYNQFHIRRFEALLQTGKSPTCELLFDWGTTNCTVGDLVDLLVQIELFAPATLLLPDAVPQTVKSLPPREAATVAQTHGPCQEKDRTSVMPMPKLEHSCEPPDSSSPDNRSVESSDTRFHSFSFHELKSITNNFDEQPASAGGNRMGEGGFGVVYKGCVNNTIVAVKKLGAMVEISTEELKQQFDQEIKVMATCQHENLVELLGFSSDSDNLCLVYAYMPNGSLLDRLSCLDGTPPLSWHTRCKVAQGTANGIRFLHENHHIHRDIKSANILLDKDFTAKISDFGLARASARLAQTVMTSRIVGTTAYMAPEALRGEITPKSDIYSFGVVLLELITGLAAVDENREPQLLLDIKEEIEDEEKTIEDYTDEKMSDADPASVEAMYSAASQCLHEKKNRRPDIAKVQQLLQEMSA

[5] = molecular target: Cyclin-dependent kinase 16 (Homo sapiens) (UniProt Q00536); experiment: Inhibition of human PCTAIREI assessed as residual activity at 10 uM by Eurofins kinase profiler method relative to control
[6] = system: RAW264.7; experiment: Inhibition of NFkappaB/MAPK signaling pathway in mouse RAW264.7 cells assessed as reduction in LPS-induced p65 phosphorylation at 50 uM by Western blot analysis; type: cell-based
[7] = system: RAW264.7; experiment: Inhibition of NFkappaB/MAPK signaling pathway in mouse RAW264.7 cells assessed as reduction in LPS-induced p38 phosphorylation at 50 uM by Western blot analysis; type: cell-based
[8] = system: Mus musculus; experiment: Anti-colitis activity in male C57BL/6 mouse model of DSS-induced ulcerative colitis assessed as colon length at 20 mg/kg, po administered for 11 days with subsequent administration of DSS for 8 days (reference value: 5.2 cm); type: functional; conditions: time 11 day
[9] = system: Mus musculus; experiment: Anti-colitis activity in male C57BL/6 mouse model of DSS-induced ulcerative colitis assessed as colon length at 10 mg/kg, po administered for 11 days with subsequent administration of DSS for 8 days (reference value: 5.2 cm); type: functional; conditions: time 11 day
[10] = system: Mus musculus; experiment: Antiinflammatory activity in male C57BL/6 mouse model of DSS-induced ulcerative colitis assessed as reduction in spleen to body weight ratio at 10 to 20 mg/kg, po administered for 11 days with subsequent administration of DSS for 8 days; type: functional, organism-based; conditions: dose 10-20 mg/kg, time 11.0 day
[11] = system: Mus musculus; experiment: Antiinflammatory activity in male C57BL/6 mouse model of DSS-induced ulcerative colitis assessed as restoration of protein status at 10 to 20 mg/kg, po administered for 11 days with subsequent administration of DSS for 8 days by H and E staining based analysis; type: functional, organism-based; conditions: dose 10-20 mg/kg, time 11.0 day
[12] = system: Mus musculus; experiment: Antiinflammatory activity in male C57BL/6 mouse model of DSS-induced ulcerative colitis assessed as reversal of ruptured spleen at 10 to 20 mg/kg, po administered for 11 days with subsequent administration of DSS for 8 days by H and E staining based analysis; type: functional, organism-based; conditions: dose 10-20 mg/kg, time 11.0 day
[13] = system: Mus musculus; experiment: Antiinflammatory activity in male C57BL/6 mouse model of DSS-induced ulcerative colitis assessed as reduction in macrophage infiltration in colon at 10 to 20 mg/kg, po administered for 11 days with subsequent administration of DSS for 8 days by F4/80 labeling based immunohistochemistry analysis; type: functional, organism-based; conditions: dose 10-20 mg/kg, time 11.0 day
[14] = system: Mus musculus; experiment: Antiinflammatory activity in LPS induced ip dosed C57BL/6 mouse model of acute lung injury assessed as reduction in […] of lung preadministered for 30 mins followed by LPS administration and measured after 6 hrs; type: functional, organism-based; conditions: dose 20-40 mg/kg, time 6.5 hrs
[15] = system: Mus musculus; experiment: Antiinflammatory activity in LPS induced C57BL/6 mouse model of acute lung injury assessed as inhibition of TNFalpha release in BALF at 20 to 40 mg/kg, ip preadministered for 30 mins followed by LPS administration and measured after 6 hrs by ELISA; type: functional, organism-based; conditions: dose 20-40 mg/kg, time 6.5 hrs
[16] = system: Mus musculus; experiment: Antiinflammatory activity in LPS induced C57BL/6 mouse model of acute lung injury assessed as reduction in alveolar wall thickening at 20 mg/kg, ip preadministered for 30 mins followed by LPS administration and measured after 6 hrs by H and E staining based analysis; type: functional, organism-based; conditions: time 6.5 hrs
[17] = system: Mus musculus; experiment: Antiinflammatory activity in LPS induced C57BL/6 mouse model of acute lung injury assessed as reduction in spleen over activation at 20 to 40 mg/kg, ip preadministered for 30 mins followed by LPS administration and measured after 6 hrs by H and E staining based analysis; type: functional, organism-based; conditions: dose 20-40 mg/kg, time 6.5 hrs
[18] = system: Mus musculus; experiment: Antiinflammatory activity in LPS induced C57BL/6 mouse model of acute lung injury assessed as reduction in white pulp fusion at 20 to 40 mg/kg, ip preadministered for 30 mins followed by LPS administration and measured after 6 hrs by H and E staining based analysis; type: functional, organism-based; conditions: dose 20-40 mg/kg, time 6.5 hrs
[19] = system: Mus musculus; experiment: Antiinflammatory activity in LPS induced C57BL/6 mouse model of acute lung injury assessed as reduction in macrophage infiltration in lung at 20 to 40 mg/kg, ip preadministered for 30 mins followed by LPS administration and measured after 6 hrs by F4/80 labeling based immunohistochemical analysis; type: functional, organism-based; conditions: dose 20-40 mg/kg, time 6.5 hrs
[20] = system: Mus musculus; experiment: Antiinflammatory activity in LPS induced C57BL/6 mouse model of acute lung injury assessed as reduction in over activation of spleen at 20 to 40 mg/kg, ip preadministered for 30 mins followed by LPS administration and measured after 6 hrs by F4/80 labeling based immunohistochemical analysis; type: functional, organism-based; conditions: dose 20-40 mg/kg, time 6.5 hrs
[21] = system: Mus musculus; experiment: Antiinflammatory activity in LPS induced C57BL/6 mouse model of acute lung injury assessed as reduction in number of macrophages in spleen at 20 to 40 mg/kg, ip preadministered for 30 mins followed by LPS administration and measured after 6 hrs by F4/80 labeling based immunohistochemical analysis; type: functional, organism-based; conditions: dose 20-40 mg/kg, time 6.5 hrs
[22] = Half life in male Sprague-Dawley rat at 1 mg/kg, iv administered via tail vein and measured upto 24 hrs; type: ADME, organism-based; conditions: in vivo
[23] = Cmax in male Sprague-Dawley rat at 1 mg/kg, iv administered via tail vein and measured upto 24 hrs; type: ADME, organism-based; conditions: in vivo
[24] = Drug uptake in male Sprague-Dawley rat blood at 1 mg/kg, iv administered via tail vein and measured after 24 hrs; type: ADME, organism-based; conditions: in vivo
[25] = system: J774.A1; experiment: cells; conditions: Mus musculus
Description: Antiinflammatory activity in LPS-induced mouse J774.A1 cells assessed as inhibition of IL-6 release pretreated for 30 mins followed by LPS stimulation and measured after 24 hrs by ELISA

[26] = system: THP-1; experiment: cells; conditions: Homo sapiens
Description: Antiinflammatory activity in LPS-induced human THP-1 cells assessed as inhibition of IL-6 release pretreated for 30 mins followed by LPS stimulation and measured after 24 hrs by ELISA

[27] = system: THP-1; experiment: cells; conditions: Homo sapiens; remark: listed apart in the source
Description: Antiinflammatory activity in LPS-induced human THP-1 cells assessed as inhibition of TNF-alpha release pretreated for 30 mins followed by LPS stimulation and measured after 24 hrs by ELISA

Chain of Cyclin-dependent kinase 16 (Homo sapiens) (Q00536 whole entry): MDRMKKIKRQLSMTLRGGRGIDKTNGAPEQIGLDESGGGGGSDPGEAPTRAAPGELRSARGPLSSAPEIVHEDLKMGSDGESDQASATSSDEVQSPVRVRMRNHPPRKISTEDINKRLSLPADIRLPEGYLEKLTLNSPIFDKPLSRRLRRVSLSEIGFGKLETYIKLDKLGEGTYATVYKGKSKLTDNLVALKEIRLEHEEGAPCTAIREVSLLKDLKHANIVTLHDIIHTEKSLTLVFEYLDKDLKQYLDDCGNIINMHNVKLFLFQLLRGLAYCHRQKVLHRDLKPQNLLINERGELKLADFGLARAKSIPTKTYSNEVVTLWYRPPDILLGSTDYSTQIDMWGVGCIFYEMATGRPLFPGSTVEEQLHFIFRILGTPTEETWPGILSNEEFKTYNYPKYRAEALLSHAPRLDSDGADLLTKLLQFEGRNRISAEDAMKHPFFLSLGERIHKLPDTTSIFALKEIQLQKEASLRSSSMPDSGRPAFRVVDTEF
Chain of Mitogen-activated protein kinase 14 (Homo sapiens) (Q16539 whole entry): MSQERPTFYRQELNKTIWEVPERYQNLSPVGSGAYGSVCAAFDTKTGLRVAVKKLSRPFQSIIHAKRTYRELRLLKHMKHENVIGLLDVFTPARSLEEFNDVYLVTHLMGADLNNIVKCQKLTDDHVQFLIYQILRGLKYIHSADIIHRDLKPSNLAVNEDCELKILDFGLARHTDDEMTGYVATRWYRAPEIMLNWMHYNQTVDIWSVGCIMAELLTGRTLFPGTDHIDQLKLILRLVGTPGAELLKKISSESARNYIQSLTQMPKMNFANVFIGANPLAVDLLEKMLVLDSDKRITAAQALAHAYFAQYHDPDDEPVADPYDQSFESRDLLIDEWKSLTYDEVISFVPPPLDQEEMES
Chain of Interleukin-1 receptor-associated kinase 1 (P51617 whole entry): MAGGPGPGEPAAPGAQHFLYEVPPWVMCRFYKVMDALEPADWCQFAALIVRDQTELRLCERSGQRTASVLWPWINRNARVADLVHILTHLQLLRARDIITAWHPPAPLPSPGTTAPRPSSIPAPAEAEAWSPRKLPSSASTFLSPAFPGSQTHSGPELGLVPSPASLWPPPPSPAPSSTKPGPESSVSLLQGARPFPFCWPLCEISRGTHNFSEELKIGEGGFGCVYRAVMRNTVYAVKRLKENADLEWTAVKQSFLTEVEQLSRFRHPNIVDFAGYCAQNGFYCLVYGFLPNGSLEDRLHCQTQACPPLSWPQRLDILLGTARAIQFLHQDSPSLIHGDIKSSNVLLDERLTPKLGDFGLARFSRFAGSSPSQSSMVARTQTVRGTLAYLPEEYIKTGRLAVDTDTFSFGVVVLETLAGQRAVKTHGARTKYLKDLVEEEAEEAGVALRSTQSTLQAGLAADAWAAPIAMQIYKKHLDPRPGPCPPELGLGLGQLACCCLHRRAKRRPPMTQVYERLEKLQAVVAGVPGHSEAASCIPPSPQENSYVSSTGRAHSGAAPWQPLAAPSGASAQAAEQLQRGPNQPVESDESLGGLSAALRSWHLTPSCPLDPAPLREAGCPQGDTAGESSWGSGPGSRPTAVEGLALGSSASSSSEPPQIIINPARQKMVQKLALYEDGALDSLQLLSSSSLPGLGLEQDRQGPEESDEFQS

- inhibition [2]: 0.03%
- IC50 [3]: 1.77 µM
- Activity [4]: Active
- Activity [5]: 70%
- half-life [22]: 2.8 h
- Cmax [23]: 6260 ng/mL
- Drug uptake [24]: Active
- IC50 [25]: 1.54 µM
- IC50 [26]: 0.53 µM
- IC50 [27]: 0.6 µM
SMILES: COc1cc2c(O[C@H]3CC[C@@H](N)CC3)ncnc2cc1OCc1ccccc1
- inhibition at 10 µM [1]: 92.4%
- inhibition [6]: Active
- inhibition [7]: Active
- Activity [8]: 6.2 cm
- Activity [9]: 5.9 cm
- Activity [10]: Active
- Activity [11]: Active
- Activity [12]: Active
- Activity [13]: Active
- Activity [14]: Dose-Dependent Effect
- Activity [15]: Active
- Activity [16]: Active
- Activity [17]: Active
- Activity [18]: Active
- Activity [19]: Active
- Activity [20]: Active
- Activity [21]: Active
